Reference: patent US4450269A, “Mono-5-substituted-3-chloro-4H-1,2,6-thiadiazin-4-one antifungal agents” (FMC Corporation, priority 1980, dated 1984)

Assays:
[1] = tested on: Pyricularia oryzae; test: microbe, parasite or virus in culture; assay type: cell-based; conditions: for inhibition at 5 ppm / inhibition at 10 ppm / inhibition at 20 ppm / inhibition at 40 ppm: Pyricularia oryzae, 72 h; for inhibition at 5 ppm: read-out: Percent Fungus Growth Inhibition, PO, 5 ppm, 72 hours; for inhibition at 10 ppm: read-out: Percent Fungus Growth Inhibition, PO, 10 ppm, 72 hours; for inhibition at 20 ppm: read-out: Percent Fungus Growth Inhibition, PO, 20 ppm, 72 hours; for inhibition at 40 ppm: read-out: Percent Fungus Growth Inhibition, PO, 40 ppm, 72 hours; for Percent Fungus Growth Inhibition: PO, 72 hours
[2] = tested on: Pyricularia oryzae; test: whole plant or invertebrate; assay type: in vivo; conditions: for pest or weed control at 150 ppm: Pyricularia oryzae, foliar, 24 h, read-out: Percent Disease Control, curative, rice blast, 150 ppm, 24 hours after inoculation; for Percent Disease Control, curative, rice blast: 150 ppm, 24 hours after inoculation

CS(=O)(=O)c1ccc(Oc2nsnc(Cl)c2=O)cc1 [Compound 41, 3-chloro-5-[(4-methylsulfonyl)phenoxy]-4H--1,2,6-thiadiazin-4-one]
inhibition at 5 ppm [1]: 22% | inhibition at 10 ppm [1]: 56% | inhibition at 20 ppm [1]: 59% | inhibition at 40 ppm [1]: 93% | pest or weed control at 150 ppm [2]: 0%

CCOC(=O)c1ccc(Oc2nsnc(Cl)c2=O)cc1 [Compound 7, 3-chloro-5-(4-ethoxycarbonylphenoxy)-4H--1,2,6-thiadiazin-4-one]
inhibition at 5 ppm [1]: 19% | inhibition at 10 ppm [1]: 65% | inhibition at 20 ppm [1]: 77% | inhibition at 40 ppm [1]: 81% | pest or weed control at 150 ppm [2]: 0%

O=C(Nc1ccccc1)Nc1ccc(Oc2nsnc(Cl)c2=O)cc1 [Compound 29, 3-chloro-5-[4-(3-phenylureido)-phenoxy]-4H--1,2,6-thiadiazin-4-one]
inhibition at 5 ppm [1]: 19% | inhibition at 10 ppm [1]: 14% | inhibition at 20 ppm [1]: 0% | inhibition at 40 ppm [1]: 0% | pest or weed control at 150 ppm [2]: 0%

O=c1c(Cl)nsnc1Oc1ccc(F)cc1 [Compound 11, 3-chloro-5-(4-fluorophenoxy)-4H--1,2,6-thiadiazin-4-one]
inhibition at 5 ppm [1]: 15% | inhibition at 10 ppm [1]: 38% | inhibition at 20 ppm [1]: 54% | inhibition at 40 ppm [1]: 62% | pest or weed control at 150 ppm [2]: 0%

CCCCOc1ccc(Oc2nsnc(Cl)c2=O)cc1 [Compound 6, 3-chloro-5-(4-n-butoxyphenoxy)-4H--1,2,6-thiadiazin-4-one]
inhibition at 5 ppm [1]: 15% | inhibition at 10 ppm [1]: 0% | inhibition at 20 ppm [1]: 19% | inhibition at 40 ppm [1]: 19% | pest or weed control at 150 ppm [2]: 0%

Cc1ccc(Oc2nsnc(Cl)c2=O)c(Br)c1 [Compound 57, 3-[(2-bromo-4-methyl)-phenoxy]-5-chloro-4H--1,2,6-thiadiazin-4-one]
inhibition at 5 ppm [1]: 46% | inhibition at 10 ppm [1]: 61% | inhibition at 20 ppm [1]: 71% | inhibition at 40 ppm [1]: 61% | pest or weed control at 150 ppm [2]: 0%

Cc1cc(Cl)ccc1Oc1nsnc(Cl)c1=O [Compound 55, 3-chloro-5-(4-chloro-2-methylphenoxy)-4H--1,2,6-thiadiazin-4-one]
inhibition at 5 ppm [1]: 41% | inhibition at 10 ppm [1]: 59% | inhibition at 20 ppm [1]: 51% | inhibition at 40 ppm [1]: 53% | pest or weed control at 150 ppm [2]: 50%

CC(=O)c1ccc(Oc2nsnc(Cl)c2=O)cc1 [Compound 47, 3-(4-acetylphenoxy)-5-chloro-4H--1,2,6-thiadiazin-4-one]
inhibition at 5 ppm [1]: 78% | inhibition at 10 ppm [1]: 78% | inhibition at 20 ppm [1]: 100% | inhibition at 40 ppm [1]: 89% | pest or weed control at 150 ppm [2]: 90%

Cc1cccc(Oc2nsnc(Cl)c2=O)c1 [Compound 21, 3-chloro-5-(3-methylphenoxy)-4H--1,2,6-thiadiazin-4-one]
inhibition at 5 ppm [1]: 33% | inhibition at 10 ppm [1]: 33% | inhibition at 20 ppm [1]: 50% | inhibition at 40 ppm [1]: 58% | pest or weed control at 150 ppm [2]: 85%

O=C(Nc1ccccc1)Oc1ccc(Oc2nsnc(Cl)c2=O)cc1 [Compound 37, 3-chloro-5-[4-(phenylaminocarbonyloxy)phenoxy]-4H-1,2,6,-thiadiazin-4-one]
inhibition at 5 ppm [1]: 44% | inhibition at 10 ppm [1]: 44% | inhibition at 20 ppm [1]: 61% | inhibition at 40 ppm [1]: 61% | pest or weed control at 150 ppm [2]: 0%

3-chloro-5-(bromophenoxy)-4H-1,2,6-thiadiazin-4-one [Compound 33]
Percent Fungus Growth Inhibition ([1]; 5 ppm): 53% | Percent Fungus Growth Inhibition ([1]; 10 ppm): 68% | Percent Fungus Growth Inhibition ([1]; 20 ppm): 100% | Percent Fungus Growth Inhibition ([1]; 40 ppm): 100% | Percent Disease Control, curative, rice blast [2]: 0%

Cc1cc(Oc2nsnc(Cl)c2=O)ccc1Cl [Compound 54, 3-chloro-5-(4-chloro-3-methylphenoxy)-4H--1,2,6-thiadiazin-4-one]
inhibition at 5 ppm [1]: 50% | inhibition at 10 ppm [1]: 53% | inhibition at 20 ppm [1]: 56% | inhibition at 40 ppm [1]: 65% | pest or weed control at 150 ppm [2]: 0%

Cc1cccc(C)c1Oc1nsnc(Cl)c1=O [Compound 24, 3-chloro-5-(2,6-dimethylphenoxy)-4H--1,2,6-thiadiazin-4-one]
inhibition at 5 ppm [1]: 21% | inhibition at 10 ppm [1]: 42% | inhibition at 20 ppm [1]: 63% | inhibition at 40 ppm [1]: 100% | pest or weed control at 150 ppm [2]: 95%

CC(=O)c1ccccc1Oc1nsnc(Cl)c1=O [Compound 49, 3-(2-acetylphenoxy)-5-chloro-4H--1,2,6-thiadiazin-4-one]
inhibition at 5 ppm [1]: 29% | inhibition at 10 ppm [1]: 38% | inhibition at 20 ppm [1]: 53% | inhibition at 40 ppm [1]: 74% | pest or weed control at 150 ppm [2]: 0%

O=c1c(Cl)nsnc1Oc1cccc(Cl)c1Cl [Compound 19, 3-chloro-5-(2,3-dichlorophenoxy)-4H--1,2,6-thiadiazin-4-one]
inhibition at 5 ppm [1]: 39% | inhibition at 10 ppm [1]: 48% | inhibition at 20 ppm [1]: 68% | inhibition at 40 ppm [1]: 87% | pest or weed control at 150 ppm [2]: 0%

O=c1c(Cl)nsnc1Oc1ccc(Cl)cc1Cl [Compound 17, 3-chloro-5-(2,4-dichlorophenoxy)-4H--1,2,6-thiadiazin-4-one]
inhibition at 5 ppm [1]: 29% | inhibition at 10 ppm [1]: 48% | inhibition at 20 ppm [1]: 29% | inhibition at 40 ppm [1]: 71% | pest or weed control at 150 ppm [2]: 0%

O=c1c(Cl)nsnc1Oc1cc(Cl)cc(Cl)c1 [Compound 20, 3-chloro-5-(3,5-dichlorophenoxy)-4H--1,2,6-thiadiazin-4-one]
inhibition at 5 ppm [1]: 48% | inhibition at 10 ppm [1]: 74% | inhibition at 20 ppm [1]: 68% | inhibition at 40 ppm [1]: 74% | pest or weed control at 150 ppm [2]: 0%

Nc1ccc(Oc2nsnc(Cl)c2=O)cc1 [Compound 26, 5-(4-aminophenoxy)-3-chloro-4H--1,2,6-thiadiazin-4-one]
Percent Fungus Growth Inhibition ([1]; 5 ppm): 0% | Percent Fungus Growth Inhibition ([1]; 10 ppm): 48% | Percent Fungus Growth Inhibition ([1]; 20 ppm): 90% | inhibition at 40 ppm [1]: 100% | Percent Disease Control, curative, rice blast [2]: 0%

O=c1c(Cl)nsnc1Oc1ccc([N+](=O)[O-])cc1 [Compound 9, 3-chloro-5-(4-nitrophenoxy)-4H--1,2,6-thiadiazin-4-one]
inhibition at 5 ppm [1]: 22% | inhibition at 10 ppm [1]: 48% | inhibition at 20 ppm [1]: 70% | inhibition at 40 ppm [1]: 93% | pest or weed control at 150 ppm [2]: 90%

Cc1cc(Oc2nsnc(Cl)c2=O)cc(C)c1Br [Compound 60, 3-[(4-bromo-3,5-dimethyl)-phenoxy]-5-chloro-4H--1,2,6-thiadiazin-4-one]
inhibition at 5 ppm [1]: 32% | inhibition at 10 ppm [1]: 43% | inhibition at 20 ppm [1]: 43% | inhibition at 40 ppm [1]: 64% | pest or weed control at 150 ppm [2]: 0%

O=c1c(Cl)nsnc1Oc1ccc(Br)cc1 [Compound 15, 3-chloro-5-(4-bromophenoxy)-4H--1,2,6-thiadiazin-4-one]
inhibition at 5 ppm [1]: 12% | inhibition at 10 ppm [1]: 19% | inhibition at 20 ppm [1]: 50% | inhibition at 40 ppm [1]: 58% | pest or weed control at 150 ppm [2]: 95%
